Assay results from patent publication US12122761B2, “2-azaspiro[3.4]octane derivatives as M4 agonists” (NOVARTIS AG, priority 2019, dated 2024).

Assays:
[1] = molecular target: T1, Cloned human M1 receptor (CHRM1) stably expressed in HEK293 cells (Homo sapiens, UniProt P11229); test: CHRM1 Ca++ Flux Assay (agonist mode, FDSS 7000EX); assay type: cell-based; conditions: for M1 FDSS PA: Percent Activity; for EC50: geometric mean if tested more than once
T1 construct: expressed in transfected cells; host or cells: HEK293
T1 sequence (P11229 1-460): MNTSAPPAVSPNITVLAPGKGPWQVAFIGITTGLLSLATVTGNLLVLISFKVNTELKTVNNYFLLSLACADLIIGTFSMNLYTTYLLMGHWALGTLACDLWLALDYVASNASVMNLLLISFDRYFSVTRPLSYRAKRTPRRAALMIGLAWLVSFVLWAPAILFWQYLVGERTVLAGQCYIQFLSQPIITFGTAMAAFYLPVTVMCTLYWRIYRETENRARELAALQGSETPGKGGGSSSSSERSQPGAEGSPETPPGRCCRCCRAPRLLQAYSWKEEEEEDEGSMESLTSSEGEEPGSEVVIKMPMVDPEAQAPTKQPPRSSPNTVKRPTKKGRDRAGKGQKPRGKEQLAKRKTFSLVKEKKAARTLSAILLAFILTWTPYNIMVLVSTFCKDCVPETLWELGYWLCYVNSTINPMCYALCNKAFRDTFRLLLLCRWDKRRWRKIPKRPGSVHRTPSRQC
Summary of the method: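 Compounds tested as agonists at 11 concentrations in triplicate, with calcium traces captured over 3 minutes. Cells were HEK293 with stable human CHRM1 expression, plated overnight at 25K/well and loaded with calcium dye. Responses normalized to carbachol EC100 and fitted by four-parameter nonlinear regression.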

[2] = molecular target: T2, human cloned CHRM2 receptor (M2_CHO cells) (Homo sapiens, UniProt P08172); test: CHRM2 Ca++ Flux Assay (agonist mode, FDSS 7000EX); assay type: cell-based; conditions: for M2 FDSS PA: Percent Activity measured to EC100 of Carbachol; for EC50: agonist mode, geometric mean if tested more than once, read-out: M2 FDSS EC50
T2 construct: expressed in transfected cells; host or cells: CHO-K1
T2 sequence (P08172 1-466): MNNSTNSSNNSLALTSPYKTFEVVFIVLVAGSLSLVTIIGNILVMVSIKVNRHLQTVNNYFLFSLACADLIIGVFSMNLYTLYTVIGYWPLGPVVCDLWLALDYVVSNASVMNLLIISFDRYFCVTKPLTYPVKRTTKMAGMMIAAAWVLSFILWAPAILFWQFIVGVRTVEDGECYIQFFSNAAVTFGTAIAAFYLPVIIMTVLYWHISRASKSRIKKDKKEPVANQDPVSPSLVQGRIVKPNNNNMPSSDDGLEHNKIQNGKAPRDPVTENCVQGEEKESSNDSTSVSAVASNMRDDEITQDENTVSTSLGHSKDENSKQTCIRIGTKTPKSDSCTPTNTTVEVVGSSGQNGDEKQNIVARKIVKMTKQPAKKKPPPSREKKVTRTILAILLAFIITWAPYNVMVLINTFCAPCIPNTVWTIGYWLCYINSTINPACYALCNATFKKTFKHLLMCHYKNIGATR
Summary of the method: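 Agonist-mode Ca++ flux in CHO-K1 cells stably expressing human CHRM2, dye-loaded, then held 60 min at room temperature in buffer with 20 μM ATP before compound addition; traces read over 3 minutes. Four-parameter fit of triplicate wells; percent activity relative to Carbachol EC100.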

M1 FDSS PA [1] [%] | EC50 [1] [nM] | M2 FDSS PA [2] [%] | EC50 [2] [nM] | SMILES
34 | 120 | 0 |  | O=C(N1CC2(CC[C@@H](N3CCC(c4ccccc4OC4CCOCC4)CC3)C2)C1)C1(F)CC1 (single isomer, unassigned) [Example 9E, (R)-(1-fluorocyclopropyl)(6-(4-(2-((tetrahydro-2H-pyran-4-yl)oxy)phenyl)piperidin-1-yl)-2-azaspiro[3.4]octan-2-yl)methanone or (S)-(1-fluorocyclopropyl)(6-(4-(2-((tetrahydro-2H-pyran-4-yl)oxy)phenyl)piperidin-1-yl)-2-azaspiro[3.4]octan-2-yl)methanone]
0 | > 25000 | 0 |  | O=C(N1CC2(CC[C@@H](N3CCC(c4ccccc4OC4CCOCC4)CC3)C2)C1)C1(F)CC1 (single isomer, unassigned) [Example 9F, (R)-(1-fluorocyclopropyl)(6-(4-(2-((tetrahydro-2H-pyran-4-yl)oxy)phenyl)piperidin-1-yl)-2-azaspiro[3.4]octan-2-yl)methanone or (S)-(1-fluorocyclopropyl)(6-(4-(2-((tetrahydro-2H-pyran-4-yl)oxy)phenyl)piperidin-1-yl)-2-azaspiro[3.4]octan-2-yl)methanone]
31 | 569 | 0 |  | O=C(N1CC2(CC[C@@H](N3CCC(c4cc(F)ccc4C4CCOCC4)CC3)C2)C1)C1(F)CC1 (single isomer, unassigned) [Example 9L, (R)-(6-(4-(5-fluoro-2-(tetrahydro-2H-pyran-4-yl)phenyl)piperidin-1-yl)-2-azaspiro[3.4]octan-2-yl)(1-fluorocyclopropyl)methanone or (S)-(6-(4-(5-fluoro-2-(tetrahydro-2H-pyran-4-yl)phenyl)piperidin-1-yl)-2-azaspiro[3.4]octan-2-yl)(1-fluorocyclopropyl)methanone]

More lines, now with the values behind:

SMILES | M1 FDSS PA [1] [%] | EC50 [1] [nM] | M2 FDSS PA [2] [%] | EC50 [2] [nM]
O=C(N1CC2(CC[C@@H](N3CCC(c4ccccc4C4(O)CCOCC4)CC3)C2)C1)C1(F)CC1 (single isomer, unassigned) [Example 9G, (R)-(1-fluorocyclopropyl)(6-(4-(2-(4-hydroxytetrahydro-2H-pyran-4-yl)phenyl)piperidin-1-yl)-2-azaspiro[3.4]octan-2-yl)methanone or (S)-(1-fluorocyclopropyl)(6-(4-(2-(4-hydroxytetrahydro-2H-pyran-4-yl)phenyl)piperidin-1-yl)-2-azaspiro[3.4]octan-2-yl)methanone] | 16 | 301 | 0 | 
O=C(N1CC2(CC[C@@H](N3CCC(c4ccccc4C4(O)CCOCC4)CC3)C2)C1)C1(F)CC1 (single isomer, unassigned) [Example 9H, (R)-(1-fluorocyclopropyl)(6-(4-(2-(4-hydroxytetrahydro-2H-pyran-4-yl)phenyl)piperidin-1-yl)-2-azaspiro[3.4]octan-2-yl)methanone or (S)-(1-fluorocyclopropyl)(6-(4-(2-(4-hydroxytetrahydro-2H-pyran-4-yl)phenyl)piperidin-1-yl)-2-azaspiro[3.4]octan-2-yl)methanone] | 0 | > 25000 | 0 | 
O=C(N1CC2(CC[C@@H](N3CCC(c4cc(F)ccc4C4(O)CCOCC4)CC3)C2)C1)C1(F)CC1 (single isomer, unassigned) [Example 9I, (R)-(6-(4-(5-fluoro-2-(4-hydroxytetrahydro-2H-pyran-4-yl)phenyl)piperidin-1-yl)-2-azaspiro[3.4]octan-2-yl)(1-fluorocyclopropyl)methanone or (S)-(6-(4-(5-fluoro-2-(4-hydroxytetrahydro-2H-pyran-4-yl)phenyl)piperidin-1-yl)-2-azaspiro[3.4]octan-2-yl)(1-fluorocyclopropyl)methanone] | 23 | 92 | 0 | 
O=C(N1CC2(CC[C@@H](N3CCC(c4cc(F)ccc4C4(O)CCOCC4)CC3)C2)C1)C1(F)CC1 (single isomer, unassigned) [Example 9J, (R)-(6-(4-(5-fluoro-2-(4-hydroxytetrahydro-2H-pyran-4-yl)phenyl)piperidin-1-yl)-2-azaspiro[3.4]octan-2-yl)(1-fluorocyclopropyl)methanone or (S)-(6-(4-(5-fluoro-2-(4-hydroxytetrahydro-2H-pyran-4-yl)phenyl)piperidin-1-yl)-2-azaspiro[3.4]octan-2-yl)(1-fluorocyclopropyl)methanone] | 3 | 2690 | 0 | 
O=C(N1CC2(CC[C@@H](N3CCC(c4cc(F)ccc4C4CCOCC4)CC3)C2)C1)C1(F)CC1 (single isomer, unassigned) [Example 9K, (R)-(6-(4-(5-fluoro-2-(tetrahydro-2H-pyran-4-yl)phenyl)piperidin-1-yl)-2-azaspiro[3.4]octan-2-yl)(1-fluorocyclopropyl)methanone or (S)-(6-(4-(5-fluoro-2-(tetrahydro-2H-pyran-4-yl)phenyl)piperidin-1-yl)-2-azaspiro[3.4]octan-2-yl)(1-fluorocyclopropyl)methanone] | 58 | 36 | 0 | 
Fc1cncc(N2CC3(CC[C@@H](N4CCC(c5cc(F)ccc5OC5CCOCC5)CC4)C3)C2)c1 (single isomer, unassigned) [Example 10A, (R)-6-(4-(5-fluoro-2-((tetrahydro-2H-pyran-4-yl)oxy)phenyl)piperidin-1-yl)-2-(5-fluoropyridin-3-yl)-2-azaspiro[3.4]octane or (S)-6-(4-(5-fluoro-2-((tetrahydro-2H-pyran-4-yl)oxy)phenyl)piperidin-1-yl)-2-(5-fluoropyridin-3-yl)-2-azaspiro[3.4]octane] | 34 | 1330 | 42 | 
Fc1cncc(N2CC3(CC[C@@H](N4CCC(c5cc(F)ccc5OC5CCOCC5)CC4)C3)C2)c1 (single isomer, unassigned) [Example 10B, (R)-6-(4-(5-fluoro-2-((tetrahydro-2H-pyran-4-yl)oxy)phenyl)piperidin-1-yl)-2-(5-fluoropyridin-3-yl)-2-azaspiro[3.4]octane or (S)-6-(4-(5-fluoro-2-((tetrahydro-2H-pyran-4-yl)oxy)phenyl)piperidin-1-yl)-2-(5-fluoropyridin-3-yl)-2-azaspiro[3.4]octane] |  | > 25000 | 31 | 14400
Fc1ccc(C2CCOCC2)c(C2CCN([C@@H]3CCC4(C3)CN(c3cncnc3)C4)CC2)c1 (single isomer, unassigned) [Example 10C, (R)-6-(4-(5-fluoro-2-(tetrahydro-2H-pyran-4-yl)phenyl)piperidin-1-yl)-2-(pyrimidin-5-yl)-2-azaspiro[3.4]octane or (S)-6-(4-(5-fluoro-2-(tetrahydro-2H-pyran-4-yl)phenyl)piperidin-1-yl)-2-(pyrimidin-5-yl)-2-azaspiro[3.4]octane] | 76 | 80 | 30 | 35
